Measured values reported in patent US20120190613A1, “ECHINOCANDIN DERIVATIVES” (priority 2009, published 2012).
Values after ≈ are worked out from the molar mass of the structure shown. Read-outs that look alike come from different tables or passages of the source. Marks after values point to notes of the source that are not given here.

What was measured:
[1] = test system: C. albicans 104 ATCC 90028; test: MIC by broth microdilution against C. albicans; assay type: cell-based; conditions: Candida albicans
Procedure: (§1) MIC values (μg/mL) of echinocandin class compounds of the invention against various Candida and Aspergillus species were obtained as follows. Test organisms were obtained from the American Type Culture Collection (Manassas, Va.). The isolates were maintained at −80 ° C., then thawed and sub-cultured one day prior to testing (seven days for Aspergillus strains).
(§2) The mouse serum was heat-inactivated for 30 minutes at 56° C., and filtered through a 0.2 μm low protein binding filter unit prior to use.
(§3) MIC values were determined using broth microdilution. The wells of the daughter plates ultimately contained 180 μL of RPMI-1640 medium with and without mouse serum, 10 μL of drug solution, and 10 μL of yeast or fungal inoculum.
(§4) Prior to susceptibility testing, fungal isolates were removed from frozen storage, thawed at room temperature, and subcultured to Potato Dextrose Agar. The Candida strains were incubated overnight at 35° C. and the Aspergillus strains for 7 days at 25° C. Yeast colonies were inoculated into sterile saline and adjusted to the turbidity of a 0.5 McFarland standard. Inoculums from Aspergillus strains were prepared by washing the surface of an agar slant with 1 mL of sterile saline containing 0.05% of Tween 20. The resulting colloidial suspensions were adjusted to an optical density of 0.09 to 0.11 at λ 625 nm.
(§5) Both the yeast and filamentous fungus suspensions were further diluted 1:100 in RPMI-1640 medium and dispensed into sterile reservoirs and used to inoculate the daughter plates. 10 μL of standardized inoculum was delivered into each well. This yielded a final cell concentration in the daughter plates of approximately 2.5×10^3 colony-forming units/mL. Plates were incubated at 35° C. for approximately 48 hr.
(§6) Following incubation, microplates were viewed from the bottom using a plate viewer.

A. flavus 626 ATCC 64025 = test: MIC by broth microdilution against A. flavus; assay type: cell-based; conditions: Aspergillus flavus, ATCC64025; 0% mouse serum, 48 hr, growth reduction of 50%; read-out: MIC
Procedure: as §1, §2, §3, §4, §5, §6

[2] = test system: C. parapsilosis 630 ATCC 90018; test: MIC by broth microdilution against C. parapsilosis; assay type: cell-based; conditions: Lodderomyces parapsilosis, ATCC90018, 48 h, read-out: MIC
Procedure: as §1, §2, §3, §4, §5, §6

C. albicans R303 = test: Mouse candidiasis infection model, C. albicans density in kidneys; assay type: in vivo, female CD-1 mice; conditions: kidneys at 24 hr; for Difference from 24-hr control / Mean log10 CFU/kidneys (±SD): 1 mg/kg IP 2 hr after infection; for Difference from 24-h control / Mean log10 CFU/kidneys (±SEM): Fourth run
Procedure: The objective of these studies was to evaluate the efficacy of test compounds in the mouse candidiasis infection model.
The strain, C. albicans R303 was transferred from frozen storage onto Sabauroud dextrose agar (SDA) plates and grown for ˜24 hr at 35° C. The inoculum was prepared by transferring colonies from the plate to phosphate buffered saline (PBS) and the concentration adjusted to 10^6 CFU/mL with the aid of a spectrophotometer. The stock was diluted 1:9 to prepare the inoculum. Prior to each run the concentration was verified using the dilution plate count method.
The female CD-1 mice used in this study were obtained from Charles River Laboratories, Portage, MI. The animals were approximately seven-weeks-old at the start of the study and weighed about 16-26 g.
In one approach, mice were made neutropenic with IP injections of cyclophosphamide (150 mg/kg in 10 mL/kg) at 4 and 1 day before inoculation. Each animal was inoculated with the appropriate concentration by injecting 0.1 mL of inoculum into a tail vein. The test compounds were administered IP at 2 hr after infection.
The kidneys were collected from four mice in control group 1 (untreated) at 2 hr after infection, and from the remaining mice in the study at 24 hr after infection. Kidneys were removed aseptically from each mouse and were combined in a sterile tube. An aliquot (2 mL) of sterile PBS was added to each tube and the contents homogenized with a tissue homogenizer (Polytron 3100). Serial dilutions of the tissue homogenates were conducted and 0.1 mL aliquots were spread on SDA plates and the plates incubated at 35° C. overnight. The CFU/kidneys were determined from colony counts. Data were analyzed using one-way ANOVA with the Tukey-Kramer Multiple Comparisons Test (GraphPad InStat version 3.06, GraphPad Software, San Diego, Calif.).
Treatments were administered at 2 hr after infection with 2.1×10^5 CFU/mL of the organism. Data are the means of four mice.
Treatments were administered at 2 hr after infection with 6.4×10^5 CFU/mL of the organism. Data are the means of four mice.
Treatments were administered at 2 hr after infection with 3.8×10^5 CFU/mL of the organism. Data are the means of four mice.
Treatments were administered at 2 hr after infection with 3.8×10^5 CFU/rnL of the organism. Data are the means of four mice.

[3] = 0.5 mg/kg IP 2 hr after infection
[4] = 1.5 mg/kg IP 2 hr after infection
[5] = 4.5 mg/kg IP 2 hr after infection

CC[C@H](C)C[C@H](C)CCCCCCCCC(=O)N[C@H]1C[C@@H](O)[C@@H](NCCN)NC(=O)[C@@H]2[C@@H](O)CCN2C(=O)[C@H]([C@H](O)CCN)NC(=O)[C@H]([C@H](O)[C@@H](O)c2ccc(O)cc2)NC(=O)[C@@H]2C[C@@H](O)CN2C(=O)[C@H]([C@@H](C)O)NC1=O [Caspofungin, caspofungin, reference compound]
MIC ([1]; ATCC90028, 48 h, 0% mouse serum): 0.125 µg/mL (≈ 0.114 µM)
MIC ([1]; ATCC90028, 50% mouse serum, 48 hr, read-out: MIC): 0.06 µg/mL (≈ 0.0549 µM)
MIC (A. flavus 626 ATCC 64025): 0.06 µg/mL (≈ 0.0549 µM)
MIC ([2]; 0% mouse serum): 0.5 µg/mL (≈ 0.457 µM)
MIC ([2]; 50% mouse serum): 2 µg/mL (≈ 1.83 µM)
Difference from 24-hr control (C. albicans R303; First run): −3.14*** log10 CFU/kidneys
Mean log10 CFU/kidneys (±SD) (C. albicans R303; First run, neutropenic mice): 1.63 ± 0.29 log10 CFU/kidneys
Difference from 24-h control (C. albicans R303; [3]): −4.88*** log10 CFU/kidneys
Mean log10 CFU/kidneys (±SEM) (C. albicans R303; [3]): 0.33 ± 0.33 log10 CFU/kidneys
Difference from 24-h control (C. albicans R303; [4]): −4.48*** log10 CFU/kidneys
Mean log10 CFU/kidneys (±SEM) (C. albicans R303; [4]): 0.73 ± 0.42 log10 CFU/kidneys
Difference from 24-h control (C. albicans R303; [5]): −5.20*** log10 CFU/kidneys
Mean log10 CFU/kidneys (±SEM) (C. albicans R303; [5]): 0.00 ± 0.00 log10 CFU/kidneys
Difference from 24-hr control (C. albicans R303; Second run): −3.59*** log10 CFU/kidneys
Mean log10 CFU/kidneys (±SD) (C. albicans R303; Second run): 1.61 ± 0.23 log10 CFU/kidneys
